# Results as given in US20240252456A1, “ORAL COMPOSITION, SKIN COSMETIC AND HAIR COSMETIC” (MARUZEN PHARMACEUTICALS CO., LTD., priority 2021, published 2024).
# Key:
# DPP IV (rhCD26) = target: T1, DPP IV (rhCD26) (Homo sapiens, UniProt P27487); test: DPP IV activity inhibitory action test; type: biochemical; settings: read-out: DPP IV activity inhibition rate; for inhibition at 2500 µM: 2500 μmol/L; for inhibition at 10000 µM: 10000 μmol/L
# T1 construct: purchased R&D Systems
# Protocol: In a 96-well plate, 25 μL of each of test samples (Samples 1 to 3, see Table 3 below for final concentrations) prepared with 25 mM Tris-HCl buffer solution (pH 8.0) and 25 μL of 0.4 μg/mL DPP IV (available from R&D Systems, rhCD26) solution prepared with the above buffer solution were mixed and preincubated at 37° C. for 5 minutes. After that, 50 μL of 0.5 mM Gly-Pro-p-NA-Tos (available from PEPTIDE […], INC.) prepared with the above buffer solution was added, and the mixture was reacted at 37° C. for 90 minutes. After the reaction was completed, the absorbance at a wavelength of 415 nm was measured. From the obtained results, the DPP IV activity inhibition rate (%) was calculated using the following equation.
# Terms in the equation represent the following respective ones. • A: Absorbance at wavelength 415 nm without sample addition and with enzyme addition • B: Absorbance at wavelength 415 nm without sample addition and without enzyme addition • C: Absorbance at wavelength 415 nm with test sample addition and with enzyme addition • D: Absorbance at wavelength 415 nm with test sample addition and without enzyme addition
# FLG mRNA = test: Filaggrin (FLG) mRNA expression promotive action test; type: cell-based, human; settings: NHEK, 24 hours, corrected with GAPDH
# Protocol: Normal human neonatal epidermal keratinocytes (NHEK) were precultured using normal human epidermal keratinocyte growth medium (KGM), and the cells were collected by a trypsin treatment. The collected cells were diluted with KGM to a cell density of 15×10^4 cells/mL, then seeded with 2 mL portions in a 6-well plate (30×10^4 cells/well), and cultured overnight under conditions of 37° C. and 5% CO2. After culturing, the medium was replaced with normal human epidermal keratinocyte basal medium (KBM, the above KGM without addition of growth additives (hEGF, BPE, insulin, antibacterial agents, hydrocortisone)), and culturing was further performed for 24 hours.
# After culturing for 24 hours, the medium was removed, and 2 mL of each of test samples (Samples 1 to 3, see Table 18 below for final concentrations) dissolved in KBM was added to each well, and culturing was performed under conditions of 37° C. and 5% CO2 for 24 hours. As a control, culturing was performed in the same manner using KBM to which no sample was added. After culturing, the medium was removed, total RNA was extracted using ISOGEN II (available from NIPPON GENE CO., LTD.), each RNA amount was measured using a spectrophotometer, and the total RNA was prepared so as to be 150 ng/μL.
# For FLG and GAPDH as an internal standard, the expression levels of mRNA were measured using the above total RNA as a template. Detection was performed through a two-step real-time RT-PCR reaction using a real-time PCR device, Thermal Cycler Dice Real Time System III (available from Takara Bio Inc.), with PrimeScript™ RT Master Mix (Perfect Real Time) (available from Takara Bio Inc.) and TB Green® Fast qPCR Mix (available from Takara Bio Inc.). Primers available from Takara Bio Inc. were used. The expression level of FLG mRNA was obtained as a value corrected with a value of GAPDH based on total RNA preparations prepared from cells cultured “with test sample addition” and “without sample addition.” From the obtained values, the FLG mRNA expression promotion rate (%) was calculated using the following equation.
# Terms in the equation represent the following respective ones. • A: Corrected value with test sample addition • B: Corrected value without sample addition
# [1] = test system: Normal human dermal fibroblasts (NB1RGB); test: Glutathione production promotive action test (dermal fibroblasts); type: cell-based; settings: 24 hours
# Protocol: Normal human dermal fibroblasts (NB1RGB) were cultured using α-modified Eagle's minimum essential medium (α-MEM) containing 10% FBS, and then the cells were collected by a trypsin treatment. The collected cells were diluted with α-MEM containing 10% FBS to a cell density of 2.0×10^5 cells/mL, then seeded with 200 μL per well in a 48-well plate, and cultured for 48 hours.
# After culturing, the medium was removed, 200 μL of each of test samples (Samples 1 to 3, see Table 14 below for final concentrations) dissolved in Dulbecco's modified Eagle's medium (DMEM) containing 1% FBS was added to each well, and culturing was further performed for 24 hours. As a control, culturing was performed in the same manner using DMEM containing 1% FBS to which no test sample was added. After the culturing was completed, the medium was removed from each well, and the cells were washed with 400 μL of PBS(−) buffer solution and then lysed using 150 μL of M-PER (available from PIERCE).
# Quantitative determination of total glutathione was performed using 100 μL of the lysed cells. That is, 100 μL of lysed cell extract, 50 μL of 0.1 mol/L phosphate buffer solution, 25 μL of 2 mmol/L NADPH, and 25 μL of 3.2 unit/mL glutathione reductase were added to a 96-well plate and heated at 37° C. for 10 minutes, then 25 μL of 10 mmol/L 5,5′-dithiobis(2-nitrobenzoic acid) was added, and the absorbance at a wavelength of 412 nm was measured until 5 minutes later to determine ΔOD/min. The total glutathione concentration was calculated based on a calibration curve created using oxidized glutathione (available from FUJIFILM Wako Pure Chemical Corporation). After correcting the obtained value to the glutathione value per total protein amount, the glutathione production promotion rate (%) was calculated using the following equation.
# Terms in the equation represent the following respective ones. • A: Glutathione amount per total protein amount without sample addition • B: Glutathione amount per total protein amount with test sample addition
# [2] = test system: Normal human liver cells (hepatocytes); test: ATP production promotive action test in hepatocytes; type: cell-based; settings: 2 hours
# Protocol: Normal human liver cells (hepatocytes) were cultured using Dulbecco's modified Eagle's medium (DMEM) containing 10% FBS, and then the cells were collected by a trypsin treatment. The collected cells were diluted with DMEM containing 10% FBS to a cell density of 2.0×10^5 cells/mL, then seeded with 100 μL per well in a 96-well plate, and cultured overnight.
# After the culturing was completed, the medium was removed, 100 μL of each of test samples (Samples 1 to 3, see Table 31 below for final concentrations) dissolved in DMEM containing 10% FBS was added to each well, and culturing was performed for 2 hours. As a control, culturing was performed in the same manner using DMEM containing 10% FBS to which no sample was added.
# The ATP production promotive action was evaluated by measuring the amount of ATP in cells using the firefly luciferase luminescence method. That is, after culturing for 2 hours, 100 μL of an ATP measurement reagent (available from Toyo B-Net Co., Ltd., trade name “‘Cellular’ ATP measurement reagent”) was added to each well, and chemiluminescence reaction using luciferase was performed. After the reaction, the amount of chemiluminescence proportional to the amount of intracellular ATP was measured using a chemiluminescence measurement device (available from Thermo Fisher Scientific, product name: Varioskan LUX multimode microplate reader). From the obtained results, the ATP production promotion rate (%) was calculated using the following equation.
# Terms in the equation represent the following respective ones. • A: Chemiluminescence amount with test sample addition • B: Chemiluminescence amount without sample addition
# T1 sequence (P27487 whole entry): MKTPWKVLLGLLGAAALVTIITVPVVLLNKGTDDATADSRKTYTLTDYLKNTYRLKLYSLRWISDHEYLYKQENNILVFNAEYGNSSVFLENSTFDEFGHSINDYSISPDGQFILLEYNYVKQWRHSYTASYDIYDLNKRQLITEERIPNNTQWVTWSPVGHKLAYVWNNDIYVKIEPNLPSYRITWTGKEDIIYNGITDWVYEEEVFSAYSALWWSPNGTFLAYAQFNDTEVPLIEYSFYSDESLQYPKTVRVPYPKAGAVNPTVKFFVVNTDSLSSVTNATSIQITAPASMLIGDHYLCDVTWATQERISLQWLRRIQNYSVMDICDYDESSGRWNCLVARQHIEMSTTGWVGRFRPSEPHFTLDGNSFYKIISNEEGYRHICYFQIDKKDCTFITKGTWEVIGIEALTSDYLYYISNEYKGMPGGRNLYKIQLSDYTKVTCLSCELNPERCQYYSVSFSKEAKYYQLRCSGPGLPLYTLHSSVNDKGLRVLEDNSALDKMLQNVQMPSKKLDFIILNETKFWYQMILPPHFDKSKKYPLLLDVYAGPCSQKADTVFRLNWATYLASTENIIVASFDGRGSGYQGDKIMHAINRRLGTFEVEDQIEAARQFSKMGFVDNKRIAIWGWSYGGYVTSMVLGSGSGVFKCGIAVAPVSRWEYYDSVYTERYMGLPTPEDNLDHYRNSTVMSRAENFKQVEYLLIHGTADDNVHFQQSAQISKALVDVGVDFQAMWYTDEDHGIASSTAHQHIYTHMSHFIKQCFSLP
SMILES,inhibition at 625 µM (DPP IV (rhCD26); 625 μmol/L) [%],inhibition at 2500 µM (DPP IV (rhCD26)) [%],inhibition at 10000 µM (DPP IV (rhCD26)) [%],FLG mRNA expression promotion rate (FLG mRNA; 25 μmol/L) [%],FLG mRNA expression promotion rate (FLG mRNA; 100 μmol/L) [%],Glutathione production promotion rate ([1]; 62.5 μmol/L) [%],ATP production promotion rate ([2]; 250 μmol/L) [%],ATP production promotion rate ([2]; 500 μmol/L) [%],ATP production promotion rate ([2]; 1000 μmol/L) [%],Glutathione production promotion rate ([1]; 1000 μmol/L) [%]
"O=C(O)CCc1ccc(O)c(O)c1 [Sample 1, 3,4-Dihydroxyhydrocinnamic acid]",7.2,17.6,97.1,197.2,342.0,125.8,128.4,166.8,168.9,
"O=C(O)CCc1ccc(O)cc1 [Sample 2, 3-(4-Hydroxyphenyl)propionic acid]",,,96.9,168.2,129.8,,141.9,159.1,165.1,131.7
"O=C(O)CCc1ccccc1 [Sample 3, 3-phenylpropionic acid]",,4.1,99.8,196.6,,,128.0,136.5,156.1,129.9
